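Step 1: Grow cells in 96-well plates. Step 2: Expose to compound for 48 hours at 5 concentrations. Step 3: Interpolate endpoints linearly; if unreached, use highest concentration. Definition used: TGI = concentration required for complete inhibition of growth.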
Assays:
Test in all cases: inhibition of tumour cell growth, NCI panel, 48 h
[1] = tested on: TK-10 renal
[2] = tested on: NCI-H23 lung
[3] = tested on: HOP-62 NSCLC
[4] = tested on: CCRF-CEM leukemia
[5] = tested on: K-562 leukemia
[6] = tested on: NCI-H460 lung
[7] = tested on: COLO 205 colon
[8] = tested on: OVCAR-4 ovarian
[9] = tested on: UO-31 renal
[10] = tested on: NCI/ADR-RES ovarian
[11] = tested on: SF-268 CNS
[12] = tested on: SF-539 CNS
[13] = tested on: NCI-H226 lung
[14] = tested on: M14 melanoma
[15] = tested on: SR leukemia
[16] = tested on: SK-MEL-28 melanoma
[17] = tested on: SK-MEL-2 melanoma
[18] = tested on: SNB-19 CNS
[19] = tested on: T-47D breast
[20] = tested on: A498 renal

Row | SMILES | TGI [1] [µM] | TGI [2] [µM] | TGI [3] [µM] | TGI [4] [µM] | TGI [5] [µM] | TGI [6] [µM] | TGI [7] [µM] | TGI [8] [µM] | TGI [9] [µM] | TGI [10] [µM] | TGI [11] [µM] | TGI [12] [µM] | TGI [13] [µM] | TGI [14] [µM] | TGI [15] [µM] | TGI [16] [µM] | TGI [17] [µM] | TGI [18] [µM] | TGI [19] [µM] | TGI [20] [µM]
1 | O=C1CS(=O)(=O)C(c2cccc(Oc3ccccc3)c2)N1c1ccc(Cl)cc1 (stereo unspecified) | 61.4 | > 100 | > 100 | > 100 | 63 | 35.8 | 35.5 | > 100 | > 100 | > 100 | > 100 | 39.9 | 68.3 | 76.2 | 45.4 | > 100 | 31.9 | > 100 | > 100 | –
2 | C=C(CCOC)CCC1CCCCC(CN(C)C)C1=O (stereo unspecified) | – | > 100 | > 100 | > 100 | > 100 | > 100 | > 100 | > 100 | > 100 | > 100 | > 100 | – | > 100 | > 100 | > 100 | > 100 | > 100 | > 100 | > 100 | > 100
3 | COc1ccc2c(c1)CN1C(=N2)CSC1c1cccc(Br)c1 (stereo unspecified) | > 100 | 83.5 | > 100 | – | > 100 | > 100 | > 100 | > 100 | > 100 | > 100 | > 100 | > 100 | 61.2 | > 100 | > 100 | > 100 | > 100 | > 100 | > 100 | –
4 | O=C(NC1=C(Cl)C(=O)c2ccccc2C1=O)c1ccccc1 | 52.5 | 71.7 | > 100 | > 100 | 54.3 | > 100 | 30 | > 100 | – | 39.1 | > 100 | > 100 | 69 | > 100 | > 100 | > 100 | – | > 100 | 47.4 | –
5 | CC[C@@H](C)[C@H](NC(=O)[C@H](Cc1ccccc1)NCC(F)(F)F)C(=O)OC(C)(C)C | > 100 | > 100 | > 100 | > 100 | > 100 | > 100 | > 100 | > 100 | > 100 | > 100 | > 100 | – | > 100 | > 100 | > 100 | > 100 | – | > 100 | > 100 | > 100
6 | CNc1ncccc1Nc1cc(=O)n2c3cccnc3n(C)c2c1 | > 100 | > 100 | > 100 | > 100 | > 100 | > 100 | > 100 | > 100 | > 100 | > 100 | > 100 | > 100 | > 100 | > 100 | > 100 | > 100 | – | > 100 | > 100 | > 100
7 | COc1ccc(/C=C2\N=C(N3CCCCC3)NC2=O)cc1 | > 100 | > 100 | > 100 | > 100 | – | – | > 100 | > 100 | > 100 | > 100 | > 100 | > 100 | > 100 | > 100 | > 100 | > 100 | > 100 | > 100 | > 100 | –
8 | Cc1c(-c2ccccc2)cc(O)c2nc3ccccc3n12 | > 100 | > 100 | > 100 | > 100 | > 100 | > 100 | > 100 | > 100 | > 100 | > 100 | – | > 100 | > 100 | > 100 | > 100 | > 100 | – | > 100 | > 100 | > 100
9 | COc1cc2c(cc1OCCCCCCCCCCN1C(=O)c3cccc4cccc(c34)C1=O)N=C[C@@H]1CCCN1C2=O | > 100 | 22.4 | > 100 | – | 74.7 | 78 | 15.9 | 6.11 | 28.5 | 14.4 | 37.3 | 3.21 | 5.25 | 54.6 | 3.84 | 33 | 20.3 | 57.6 | > 100 | –
10 | O=C1/C(=C/C=C/c2ccccc2)CCC1CNc1ccccc1 (stereo unspecified) | > 74.7 | > 80.9 | > 100 | 27.5 | > 35.6 | > 100 | > 94.3 | > 100 | > 100 | > 100 | > 100 | > 77.5 | > 100 | > 100 | > 100 | > 100 | – | > 89.8 | > 68.4 | > 100
